One block for each molecule: values may come before it. Positions of bridges follow the written chain, without caps; N, C: chain ends. No end group written: not given here.
Experiments:
TF-1 cells = test: TF-1 cell proliferation assay; format: cell-based, human
Description: To evaluate the biological activities of two representative synthetic peptides containing the 12-mer consensus sequence, peptides ERB1-7 and ERB1-8 were tested for their ability to stimulate proliferation of the EPO-responsive cell line (TF-1).
TF-1 cells were propagated in RPMI 1640 containing 10% BCS and 5 ng/ml GM-CSF. […] Also tested as a negative control was an IL-6 peptide having the sequence […] (SEQ ID NO:87). Peptide concentrations were tested over a 1,000-fold concentration range of 0.02 to 20 μM.

[1] = test system: extracellular domains of the receptors for tumor necrosis factor (TNFR); test: phage binding control, TNFR extracellular domain; conditions: results not shown
interleukin-6 (IL-6R) = biological target: T1, interleukin-6 (IL-6R) (Homo sapiens, UniProt P08887); test: phage binding control, IL-6R extracellular domain; conditions: results not shown
T1 sequence (P08887 20-365 limits assumed): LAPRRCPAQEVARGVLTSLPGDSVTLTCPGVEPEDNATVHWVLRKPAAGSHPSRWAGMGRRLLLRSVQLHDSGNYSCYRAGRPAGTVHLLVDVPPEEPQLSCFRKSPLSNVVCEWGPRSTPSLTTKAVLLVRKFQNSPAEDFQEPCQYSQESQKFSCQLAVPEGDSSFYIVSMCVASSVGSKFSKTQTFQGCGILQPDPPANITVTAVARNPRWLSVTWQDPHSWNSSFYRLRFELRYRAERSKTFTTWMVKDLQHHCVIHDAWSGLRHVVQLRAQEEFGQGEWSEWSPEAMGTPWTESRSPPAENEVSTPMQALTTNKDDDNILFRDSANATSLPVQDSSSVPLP

chimeric Ig-EPOR protein [2] = biological target: T2, chimeric Ig-EPOR protein (Homo sapiens, UniProt P19235); test: phage ELISA, relative affinities of binding clones for Ig-EPOR; conditions: optical density per phage at 50% ERB1 maximum response × 1×10^8; ERB1 = standard
T2 construct: a fusion protein having domains corresponding to murine IgG1 and the extracellular domain (ECD) of the human EPOR; made in house; secreted into the medium
T2 sequence (P01868 98-324 partner limits assumed, one chain of several): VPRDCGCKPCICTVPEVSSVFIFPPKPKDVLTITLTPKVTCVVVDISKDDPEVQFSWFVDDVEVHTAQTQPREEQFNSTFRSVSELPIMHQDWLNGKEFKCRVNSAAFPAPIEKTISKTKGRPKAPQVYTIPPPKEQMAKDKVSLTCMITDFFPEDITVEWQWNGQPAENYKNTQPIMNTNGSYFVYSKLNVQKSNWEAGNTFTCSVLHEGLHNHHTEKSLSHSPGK
Description: To better characterize the phage isolates having binding specificity for the EPOR, we compared the relative affinities of the binding clones presented in FIG. 4, using a phage ELISA procedure. Phage stocks of the binding clones were titered in triplicate to accurately determine the concentration of pfu/ml for each lysate. Different isolates were then assayed by ELISA using normalized phage concentrations so that all clones were tested using equivalent numbers of phage. Optical densities in the ELISA corresponding to the equivalent of a 50% maximum response in the ERB1 trial were next determined for each of the different phage isolates. […] The normalized relative affinity (“Rel. Aff.”) for each clone is shown to the right of the clone's peptide sequence in FIG. 4.

chimeric Ig-EPOR probe = biological target: T3, chimeric Ig-EPOR probe (Homo sapiens, UniProt P19235); test: EPOR-specific magnetic bead phage ELISA; format: binding; conditions: anti-M13 detection
T3 construct: a fusion protein having domains corresponding to murine IgG1 and the extracellular domain (ECD) of the human EPOR; made in house; secreted into the medium
T3 sequence (P01868 98-324 partner limits assumed, one chain of several): as above
Description: A magnetic bead ELISA protocol was used to verify that the ERB1 phage clone bound to the chimeric Ig-EPOR probe by specific interactions. The chimeric Ig-EPOR probe was bound to magnetic beads displaying rat anti-murine IgG1, substantially as described above. Samples (100 μl) of 1:2 serial dilutions (PBS and 1% BSA) of a phage lysate were combined with the beads, and the phage allowed to bind the immobilized probe for 1 hr at room temperature. Phage used in this procedure were ERB1 and two negative control phage: HPKF, a clone that binds specifically to a commercially obtained anti-IL-8 mAb, and IL6-B26, a clone that binds specifically to a human IL-6 receptor. After removing unbound phage by washing four times with 200 μl aliquots of TBST (25 mM TrisHCl, pH 7.2, 0.15 M NaCl, 0.1% TWEEN® 20), an HRP-conjugated anti-M13 detection antibody (Pharmacia) diluted 1:5,000 in PBS was added. After incubating (1 hr at room temperature), excess detection antibody was removed by washing and 10 μl for each of the washed bead complexes was transferred to microtiter wells (FALCON® 3912, MICROTEST III, Beckton Dickinson, Oxnard, Calif.) that served as reaction vessels. Each well was developed using the TMB peroxidase substrate and the extent of the peroxidase reaction measured spectrophotometrically, as described in Example 4.

[3] = Biacore analysis of binding kinetics of Ig-EPOR; conditions: known affinity values 0.1-1.1×10^−9 k (Karlsson et al.)
Excerpt: Contaminating bands and degradation products on the gel were minimal. […] The Ig-EPOR protein easily was recoverable in microgram amounts using the procedures described above.

chimeric Ig-EPOR protein [4] = biological target: T4, chimeric Ig-EPOR protein (human; murine, UniProt P19235 25-250); test: peptide inhibition ELISA (Ig-EPOR binding to EPO-coated plates)
T4 construct: extracellular domain; Secreted from COS-7 cells transfected with pcDNA3-IgG1-EPOR; major species about 59 kDa; also called IgG-EPOR; chimeric receptor; not shown: hinge region, CH2 and CH3 domains of the murine IgG1 heavy chain
T4 sequence (looked up): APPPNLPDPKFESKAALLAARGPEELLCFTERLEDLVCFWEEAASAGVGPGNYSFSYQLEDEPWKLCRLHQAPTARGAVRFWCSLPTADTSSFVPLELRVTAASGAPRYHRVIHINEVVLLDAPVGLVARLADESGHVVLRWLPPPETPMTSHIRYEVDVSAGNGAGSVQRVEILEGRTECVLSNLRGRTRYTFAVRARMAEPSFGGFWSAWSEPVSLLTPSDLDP
Excerpt: (§1) Thus, the consensus 12-mer peptide sequence given by SEQ ID NO:12 likely was necessary but not sufficient to create synthetic peptides having high affinity for the EPOR.

chimeric Ig-EPOR protein [5] = biological target: T4, chimeric Ig-EPOR protein; test: control in the peptide inhibition ELISA (FIGS. 6 and 7)
Excerpt: Synthetic peptides having the sequences […]-[…] (SEQ ID NO:81), and […]-[…] (SEQ ID NO:82) were synthesized in the cyclic (disulfide-bonded) form using standard procedures (Peninsula Laboratories, Belmont, Calif.).

chimeric Ig-EPOR protein [6] = biological target: T4, chimeric Ig-EPOR protein; test: peptide inhibition ELISA: Ig-EPOR binding to EPO-coated plates
Excerpt: as §1

Molecule: GGAFCEAVGCGPDRNFYGG [IL-6 peptide, reference compound]
stimulation of TF-1 cell proliferation (TF-1 cells; any tested concentration up to 20 μM): did not stimulate TF-1 cell proliferation

binding to extracellular domain of IL-6R (interleukin-6 (IL-6R)): did not bind
normalized relative affinity (Rel. Aff.) (chimeric Ig-EPOR protein [2]): 1.0
binding to the Ig-EPOR probe (chimeric Ig-EPOR probe): bound specifically
Molecule: DFDVCRRGWVGHCKDWLSDEYASNPSYPVPHSYYLNPP [ERB1]
binding to extracellular domain of TNFR [1]: did not bind

Molecule: EPO: recombinant human EPO (R & D Systems)
half maximal response (ED50), TF-1 proliferation (TF-1 cells; three days culture): 0.05 to 0.1 unit/ml

Molecule: Ig-EPOR: chimeric protein: ligand binding domain of human EPOR and hinge, CH2 and CH3 domains of murine IgG1
binding kinetics [3]: in good agreement with known affinity values

binding result (chimeric Ig-EPOR protein [4]): no binding
Molecule: GCRRGWVGQCKAWFN (not fully specified (bridges); also: synthesized as (cyclic form there), N-terminal truncation of ERB1-7) [15-mer peptide 7N-3]

binding result (chimeric Ig-EPOR protein [5]): no binding
Molecule: GGAFCEAVGCGPDRNFYGG (also called irrelevant IL-6 peptide) [IL-6 peptide]

binding result (chimeric Ig-EPOR protein [4]): no binding
Molecule: CRRGWVGQCKAWFN (not fully specified (bridges); also: synthesized as (cyclic form there), N-terminal truncation of ERB1-7) [14-mer peptide 7N-4]

IC50 (chimeric Ig-EPOR protein [6]): ~3.7 µM
Molecule: EGCRRGWVGQCKAWFN (disulfide 3-11 (inferred), N-terminal truncation of ERB1-7) [16-mer peptide 7N-2]

Reference: patent publication US6642353B1, “Peptide ligands for the erythropoietin receptor” (Chugai Seiyaku Kabushiki Kaisha, priority 2000, dated 2003)
